In article PMC7956476, “Quinoline Functionalized Schiff Base Silver (I) Complexes: Interactions with Biomolecules and In Vitro Cytotoxicity, Antioxidant and Antimicrobial Activities” (Molecules, 2021):

Columns and labels:
[1] = biological target: bovine serum albumin (BSA) (Bos taurus, UniProt P02769); experiment: Albumin binding by absorption spectroscopy titration
[2] = test system: neuronal cancer cell line (SHSY5Y); experiment: Cytotoxicity assay (CellTiter 96 AQueous One Solution, 72 h); assay type: cell-based, human; conditions: EC50 in HEK293 over EC50 in SHSY5Y
Description: (§1) In vitro cell viability with cultured cells is a method commonly used for cytotoxicity activities of potential anticancer compounds due to reduced cost speed, and potential for automation, and tests using human cells other than some in vivo animal tests. […] The cytotoxicity assay was conducted as per the standard method and as described by Abrahams et al. 2018 [111]. […] The plate was then incubated for 72 h at 37 °C and 5% CO2. To each well, 20 µL CellTiter 96 AQueous One Solution (Promega, Madison, WI, USA) was added and the plates were incubated for 4 h as previously described. Thereafter, absorbance was read at 490 nm on a multiplate reader (Molecular Devices, San Jose, CA, USA). […] The values recorded are averages of at least three separate experiments (n = 3).

[3] = test system: cervical cancer cell line (HELA); experiment: as above; assay type: cell-based, human; conditions: EC50 in HEK293 over EC50 in HELA
Description: as §1

[4] = test system: breast cancer cell line (MDA-MB231); experiment: as above; assay type: cell-based, human; conditions: EC50 in HEK293 over EC50 in MDA-MB231
Description: as §1

[5] = test system: Escherichia coli ATCC 25922; experiment: Minimum inhibitory concentration (MIC), spotting on Müeller–Hinton agar; assay type: cell-based; conditions: Gram − Ve; E. coli; 37 °C, 18 h
[6] = test system: Salmonella typhimurium ATCC 14026; experiment: as above; assay type: cell-based; conditions: Gram − Ve; S. typhi; 37 °C, 18 h
[7] = test system: Staphylococcus aureus ATCC 25923; experiment: as above; assay type: cell-based; conditions: Gram + Ve; S. aureus; 37 °C, 18 h
[8] = test system: Staphylococcus aureus ATCC 700699 (methicillin-resistant); experiment: as above; assay type: cell-based; conditions: Gram + Ve; methicillin-resistant S. aureus; 37 °C, 18 h
[9] = Ferric reducing antioxidant power (FRAP) assay; assay type: biochemical; conditions: done in triplicate

bovine serum albumin (BSA), sequence (P02769 25-607): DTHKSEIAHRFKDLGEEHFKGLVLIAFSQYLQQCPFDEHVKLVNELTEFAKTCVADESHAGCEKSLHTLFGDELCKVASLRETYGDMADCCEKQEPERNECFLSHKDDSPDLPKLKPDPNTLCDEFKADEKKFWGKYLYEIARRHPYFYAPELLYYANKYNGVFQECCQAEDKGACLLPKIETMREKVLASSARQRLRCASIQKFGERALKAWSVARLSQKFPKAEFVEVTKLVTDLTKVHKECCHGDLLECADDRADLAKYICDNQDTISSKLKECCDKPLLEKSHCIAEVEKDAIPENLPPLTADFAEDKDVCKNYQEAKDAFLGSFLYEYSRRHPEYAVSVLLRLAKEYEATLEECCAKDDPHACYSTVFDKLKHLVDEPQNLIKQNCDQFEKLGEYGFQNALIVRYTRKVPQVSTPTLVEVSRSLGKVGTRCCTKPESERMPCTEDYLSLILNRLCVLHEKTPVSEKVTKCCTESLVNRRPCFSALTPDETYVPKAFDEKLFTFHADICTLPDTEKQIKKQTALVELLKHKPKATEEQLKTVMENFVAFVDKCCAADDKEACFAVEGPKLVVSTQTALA

SMILES	Protein-Complex Kb (M^−1) × 10^4 [1]	Selectivity Index (SI) SHSY5Y [2]	Selectivity Index (SI) HELA [3]	Selectivity Index (SI) MDA-MB231 [4]	Minimum inhibitory concentration, EC [5] [µg/mL]	Minimum inhibitory concentration, ST [6] [µg/mL]	Minimum inhibitory concentration, SA [7] [µg/mL]	Minimum inhibitory concentration, MRSA [8] [µg/mL]	Antioxidant (IC50 mg/mL) FRAP [9] [mg/mL]
[Ag+].[O-][Cl+3]([O-])([O-])[O-].c1ccc2nc(-c3nc4ccccc4s3)ccc2c1.c1ccc2nc(-c3nc4ccccc4s3)ccc2c1 [Complex Q7, [Ag(L2)2]ClO4]	9.38 (M^−1) × 10^4	3.30	4.39	2.40	25	50	1.6	50	1.13 ± 0.044
Cc1ccc(N=Cc2ccc3ccccc3n2)cc1.Cc1ccc(N=Cc2ccc3ccccc3n2)cc1.[Ag+].[O-][Cl+3]([O-])([O-])[O-] [Complex Q9, [Ag(L4)2]ClO4]	5.43 (M^−1) × 10^4	2.12	4.48	2.57	12.5	50	50	1000	1.62 ± 0.078
